Assay results taken from patent US7977371B2, “Pyrrole derivative having ureido group and aminocarbonyl group as substituents” (Santen Pharmaceutical Co., Ltd., priority 2007, dated 2011).
Counter-ions that a name gives are not always drawn.

System: TNF-α-induced IL-6 production in normal human skin fibroblast-derived CCD-1059Sk cells
Test: Test for measurement of inhibitory activity against TNF-α-induced IL-6 production
Format: cell-based
Details: Homo sapiens, CCD-1059Sk, 16 h, test compound at 10 μM, TNF-α stimulation 16 hours, inhibition ratio of 100% or more is indicated as 100%
Protocol: 1. Test for Measurement of Inhibitory Activity Against IL-6 Production
An inhibitory effect on TNF-α-induced IL-6 production in normal human skin fibroblast-derived CCD-1059Sk cells (ATCC No. CRL-2072) was evaluated. The amount of IL-6 was determined by the homogeneous time-resolved fluorescence method using HTRF™ Human IL-6 kit (Cat. No. 62IL6PEB, manufactured by CIS-Bio international, Inc.). Specific test methods will be described below.
(Preparation of Test Compound Solution)
After a test compound was dissolved in dimethyl sulfoxide, the resulting solution was diluted with D-MEM medium containing 0.1% heat-inactivated fetal bovine serum, 0.1 mM MEM non-essential amino acid solution, 100 U/mL penicillin and 100 μg/mL streptomycin (hereinafter referred to as “medium”), whereby a 40 μM test compound solution was prepared.
(Test Method and Measurement Method)
1) CCD-1059Sk cells prepared at a density of 3×10^5 cells/mL were inoculated in a 384-well plate in an amount of 10 μL per well such that the cell density was 3×10^3 cells/well.
2). After the plate was incubated at 37° C. for several hours in a CO2 incubator, 5 μL of the test compound was added to each well.
3) After the plate was incubated at 37° C. for 1 hour in a CO2 incubator, 5 μL of a 40 ng/mL TNF-α solution was added to each well.
4) After the plate was incubated at 37° C. for 16 hours in a CO2 incubator, 10 μL of a cryptate-labeled anti-IL-6 antibody and an XL665-labeled anti-IL-6 antibody containing potassium fluoride was added to each well.
5) After the plate was incubated at room temperature for several hours, a fluorescence intensity ratio (665 nm/620 nm) was determined for each well using a multimode plate reader Analyse™ HT (manufactured by Molecular Device Corporation) and Criterion Host software version 2.00 (manufactured by Molecular Device Corporation), and then, the amount of IL-6 was calculated.
6) The same procedures as in the above 1) to 5) were performed except that 0.4% dimethyl sulfoxide was added in place of the test compound, and the obtained result was designated as the control.
7) The same procedures as in the above 1) to 5) were performed except that 0.4% dimethyl sulfoxide and the medium were added in place of the test compound and the TNF-α solution, respectively, and the obtained result was designated as the background.
(Calculation Formula of IL-6 Production Inhibition Ratio)
An IL-6 production inhibition ratio (%) was calculated from the following formula. IL-6 Production Inhibition Ratio (%)=100×{1−[(Amount of IL-6 for Test Compound)−(Amount of IL-6 for Background)/(Amount of IL-6 for Control)−(Amount of IL-6 for Background)]} (Evaluation Results)

Compound	inhibition at 10 µM [%]
NC(=O)Nc1[nH]c(-c2ccccc2OCCCF)cc1C(N)=O [Compound 4-24, 2-Aminocarbonylamino-5-[2-(3-fluoropropyloxy)phenyl] pyrrole-3-carboxamide]	99
NC(=O)Nc1[nH]c(-c2ccccc2OCCN2CCCCC2)cc1C(N)=O [Compound 4-27, 2-Aminocarbonylamino-5-[2-[2-(piperidin-1-yl)ethyloxyl]phenyl]pyrrole-3-carboxamide]	99
CN(C)CCCOc1ccccc1-c1cc(C(N)=O)c(NC(N)=O)[nH]1 [Compound 4-30, 2-Aminocarbonylamino-5-[2-(3-dimethylaminopropyloxy)phenyl]pyrrole-3-carboxamide]	99
CN(C)CCOc1ccccc1-c1cc(C(N)=O)c(NC(N)=O)[nH]1 [Compound 4-31, 2-Aminocarbonylamino-5-[2-(2-dimethylaminoethyloxy)phenyl]pyrrole-3-carboxamide]	98
CN1CCCC1CCOc1ccccc1-c1cc(C(N)=O)c(NC(N)=O)[nH]1 (stereo not drawn) [Compound 4-32, 2-Aminocarbonylamino-5-[2-[2-(1-methylpyrrolidin-2-yl)ethyloxy]phenyl]pyrrole-3-carboxamide]	99
NC(=O)Nc1[nH]c(-c2cc(F)ccc2OCCCO)cc1C(N)=O [Compound 4-35, 2-Aminocarbonylamino-5-[5-fluoro-2-(3-hydroxypropyloxy)phenyl]pyrrole-3-carboxamide]	100
CCOc1ccc(F)cc1-c1cc(C(N)=O)c(NC(N)=O)[nH]1 [Compound 4-47, 2-Aminocarbonylamino-5-(2-ethoxy-5-fluorophenyl)pyrrole-3-carboxamide]	100
CCOc1ccc(Cl)cc1-c1cc(C(N)=O)c(NC(N)=O)[nH]1 [Compound 4-48, 2-Aminocarbonylamino-5-(5-chloro-2-ethoxyphenyl)pyrrole-3-carboxamide]	100
C=CCOc1ccc(Cl)cc1-c1cc(C(N)=O)c(NC(N)=O)[nH]1 [Compound 4-49, 5-(2-Allyloxy-5-chlorophenyl)-2-(aminocarbonylamino)pyrrole-3-carboxamide]	100
C#CCOc1ccc(Cl)cc1-c1cc(C(N)=O)c(NC(N)=O)[nH]1 [Compound 4-50, 2-Aminocarbonylamino-5-[5-chloro-2-(2-propynyloxy)phenyl]pyrrole-3-carboxamide]	100
CC(=O)Oc1ccccc1-c1cc(C(N)=O)c(NC(N)=O)[nH]1 [Compound 5-1, 2-Aminocarbonylamino-5-(2-acetoxyphenyl)pyrrole-3-carboxamide]	94
NC(=O)Nc1[nH]c(-c2ccc(F)cc2)c(Cl)c1C(N)=O [Compound 7-3]	98
NC(=O)Nc1[nH]c(-c2ccccc2OCCCN2CCCC2)cc1C(N)=O [Compound 8-1, 2-Aminocarbonylamino-5-[2-[3-(pyrrolidin-1-yl)propyloxy]phenyl]pyrrole-3-carboxamide]	97
CN1CCN(CCOc2ccccc2-c2cc(C(N)=O)c(NC(N)=O)[nH]2)CC1 [Compound 8-2]	77
NC(=O)Nc1[nH]c(-c2ccccc2OCCN2CCOCC2)cc1C(N)=O [Compound 8-3]	95
NC(=O)Nc1[nH]c(-c2ccccc2OCCN2CCCC2)cc1C(N)=O [Compound 8-4]	99
CC1CCN(CCOc2ccccc2-c2cc(C(N)=O)c(NC(N)=O)[nH]2)CC1 [Compound 8-10]	98
CN(CCO)CCOc1ccccc1-c1cc(C(N)=O)c(NC(N)=O)[nH]1 [Compound 8-11]	96

Compound	inhibition at 10 µM [%]
NC(=O)Nc1[nH]c(-c2cc(F)ccc2OCCN2CCCC2)cc1C(N)=O [Compound 8-12]	100
CC1CCN(CCOc2ccc(F)cc2-c2cc(C(N)=O)c(NC(N)=O)[nH]2)CC1 [Compound 8-13]	100
NC(=O)Nc1[nH]c(-c2cc(Cl)ccc2OCCN2CCCCC2)cc1C(N)=O [Compound 8-14]	100
CN1CCN(CCOc2ccc(Cl)cc2-c2cc(C(N)=O)c(NC(N)=O)[nH]2)CC1 [Compound 8-15]	98
NC(=O)Nc1[nH]c(-c2cc(Cl)ccc2OCCN2CCC(CCO)CC2)cc1C(N)=O [Compound 8-16]	100
CN(CCO)CCOc1ccc(F)cc1-c1cc(C(N)=O)c(NC(N)=O)[nH]1 [Compound 8-17]	100
CSCCOc1ccc(F)cc1-c1cc(C(N)=O)c(NC(N)=O)[nH]1 [Compound 8-18]	100
CN(CCOc1ccc(F)cc1-c1cc(C(N)=O)c(NC(N)=O)[nH]1)C1CCCCC1 [Compound 8-22]	98
C=Cc1ccc(-c2cc(C(N)=O)c(NC(N)=O)[nH]2)cc1 [Compound 9-1, 2-Aminocarbonylamino-5-(4-vinylphenyl)pyrrole-3-carboxamide]	100
NC(=O)Nc1[nH]c(-c2ccoc2)cc1C(N)=O [Compound 9-2]	87
NC(=O)Nc1[nH]c(-c2cccc(C#CCO)c2)cc1C(N)=O [Compound 10-3]	100
C#Cc1cccc(-c2cc(C(N)=O)c(NC(N)=O)[nH]2)c1 [Compound 11-1, 2-Aminocarbonylamino-5-(3-ethynylphenyl)pyrrole-3-carboxamide]	100
CSCc1cccc(-c2cc(C(N)=O)c(NC(N)=O)[nH]2)c1 [Compound 15-1, 2-Aminocarbonylamino-5-(3-methylthiomethylphenyl)pyrrole-3-carboxamide]	98
NC(=O)Nc1[nH]c(-c2cccc(Cl)c2)c(C=O)c1C(N)=O [Compound 17-1, 2-Aminocarbonylamino-5-(3-chlorophenyl)-4-formylpyrrole-3-carboxamide]	98
NC(=O)Nc1[nH]c(-c2cccc(Cl)c2)c(CO)c1C(N)=O [Compound 18-1, 2-Aminocarbonylamino-5-(3-chlorophenyl)-4-(hydroxymethyl)pyrrole-3-carboxamide]	90
CNCc1c(-c2cccc(Cl)c2)[nH]c(NC(N)=O)c1C(N)=O [Compound 19-1, 2-Aminocarbonylamino-5-(3-chlorophenyl)-4-(methylaminomethyl)pyrrole-3-carboxamide]	97
CNCCOc1ccccc1-c1cc(C(N)=O)c(NC(N)=O)[nH]1 [Compound 20-1, 2-Aminocarbonylamino-5-[2-(2-methylaminoethyloxy)phenyl]pyrrole-3-carboxamide hydrochloride]	95

Same assay, conditions: Homo sapiens, test compound at 10 μM, TNF-α stimulation 16 hours, inhibition ratio of 100% or more is indicated as 100%

Compound	inhibition at 10 µM [%]
CCCNC(=O)Oc1ccccc1-c1cc(C(N)=O)c(NC(N)=O)[nH]1 [Compound 6-1, 2-Aminocarbonylamino-5-(2-propylaminocarbonyloxyphenyl)pyrrole-3-carboxamide]	99
